ChEMBL document CHEMBL1201862, “PubChem BioAssay data set” (2004)
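Five concentrations, 48 hours, 96-well plates. GI50 marks 50% less growth.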 Activity calls are given as the source filed them. Rule as the data show it: active = GI50 up to about 1.1 µM and inactive = higher.

Legend:
Test in all cases: NCI tumour cell line growth inhibition, 48 h
A549 = test system: A549
DU-145 = test system: DU-145
HCC 2998 = test system: HCC 2998
K562 = test system: K562
LOX IMVI = test system: LOX IMVI
M14 = test system: M14
MOLT-4 = test system: MOLT-4
NCI-H23 = test system: NCI-H23
OVCAR-3 = test system: OVCAR-3
RPMI-8226 = test system: RPMI-8226
SF-268 = test system: SF-268
SF-539 = test system: SF-539
SN12C = test system: SN12C
SNB-19 = test system: SNB-19
SNB-75 = test system: SNB-75
SR = test system: SR
U-251 = test system: U-251
UACC-62 = test system: UACC-62
UO-31 = test system: UO-31
HL-60 = test system: HL-60

Measured: GI50

COC1(OC)CCc2c(sc3ncnc(Nc4cccc(Br)c4)c23)C1
inactive: A549 25.9 µM | DU-145 10.9 µM | HCC 2998 > 100 µM | K562 26.2 µM | LOX IMVI 35.7 µM | M14 44.4 µM | MOLT-4 14.2 µM | NCI-H23 35.4 µM | OVCAR-3 > 100 µM | RPMI-8226 17 µM | SF-268 69.5 µM | SF-539 > 100 µM | SN12C 68.4 µM | SNB-19 35.5 µM | SNB-75 26.5 µM | SR 26.2 µM | U-251 61.5 µM | UACC-62 47.2 µM | UO-31 3.22 µM

N=C(N)N/N=C(/c1ccccc1)c1ccc(O)cc1O
inactive: A549 38.1 µM | DU-145 33 µM | HCC 2998 16.9 µM | K562 46.3 µM | LOX IMVI 34.9 µM | M14 23 µM | NCI-H23 31.8 µM | OVCAR-3 26.9 µM | RPMI-8226 30.5 µM | SF-268 32.6 µM | SF-539 18.5 µM | SN12C 29.4 µM | SNB-19 40.6 µM | SNB-75 49 µM | SR 20.8 µM | U-251 22.5 µM | UACC-62 30.1 µM | UO-31 46.1 µM

Cc1csc2nc(-c3ccc(Cl)c([N+](=O)[O-])c3)c(/C=N/NC(=N)N)n12
inactive: A549 1.83 µM | DU-145 2.16 µM | HL-60 1.7 µM | LOX IMVI 1.51 µM | M14 1.74 µM | NCI-H23 1.7 µM | OVCAR-3 1.96 µM | RPMI-8226 1.75 µM | SF-268 1.71 µM | SF-539 1.61 µM | SN12C 1.76 µM | SNB-19 1.3 µM | SNB-75 1.57 µM | U-251 1.5 µM | UACC-62 1.72 µM | UO-31 1.12 µM

Cc1nc(Cc2n[nH]c(C)n2)n[nH]1
inactive: A549 > 100 µM | DU-145 > 100 µM | HCC 2998 > 100 µM | K562 > 100 µM | LOX IMVI > 100 µM | M14 > 100 µM | MOLT-4 > 100 µM | NCI-H23 > 100 µM | OVCAR-3 > 100 µM | RPMI-8226 > 100 µM | SF-268 > 100 µM | SF-539 > 100 µM | SN12C > 100 µM | SNB-19 > 100 µM | SNB-75 > 100 µM | SR > 100 µM | U-251 > 100 µM | UACC-62 > 100 µM | UO-31 > 100 µM

CC1(C)C2CC(=O)C1(C)C(O)C2Br (stereo not given)
inactive: A549 > 100 µM | DU-145 > 100 µM | HCC 2998 > 100 µM | HL-60 > 100 µM | K562 > 100 µM | M14 > 100 µM | MOLT-4 > 100 µM | NCI-H23 > 100 µM | OVCAR-3 > 100 µM | SF-268 > 100 µM | SF-539 > 100 µM | SN12C > 100 µM | SNB-19 > 100 µM | U-251 > 100 µM | UACC-62 > 100 µM | UO-31 > 100 µM

Cc1ccccc1Nc1cn(CCOc2ccccc2)c(=O)n(CCOc2ccccc2)c1=O
inactive: A549 > 100 µM | DU-145 > 100 µM | HCC 2998 > 100 µM | HL-60 > 100 µM | K562 > 100 µM | LOX IMVI > 100 µM | M14 > 100 µM | MOLT-4 > 100 µM | NCI-H23 > 100 µM | OVCAR-3 > 100 µM | RPMI-8226 > 100 µM | SF-268 > 100 µM | SN12C > 100 µM | SNB-19 > 10 µM | U-251 > 100 µM | UACC-62 > 100 µM | UO-31 > 100 µM

COC(=O)CC1C(COC(C)=O)OC(n2cc(C)c(=O)[nH]c2=O)C1OC(C)=O (stereo not given)
inactive: A549 > 100 µM | DU-145 > 100 µM | HCC 2998 > 100 µM | HL-60 > 100 µM | LOX IMVI > 100 µM | M14 > 100 µM | NCI-H23 > 100 µM | OVCAR-3 > 100 µM | RPMI-8226 > 100 µM | SF-268 > 100 µM | SF-539 > 100 µM | SN12C > 100 µM | SNB-19 > 100 µM | SNB-75 > 100 µM | U-251 > 100 µM | UACC-62 > 100 µM | UO-31 > 100 µM

N#CCOc1cccc(C2(N3CC=CCC3)CCCCC2)c1
inactive: A549 > 100 µM | DU-145 > 100 µM | HL-60 83.2 µM | K562 43 µM | LOX IMVI 97.9 µM | M14 > 100 µM | MOLT-4 56.6 µM | NCI-H23 > 100 µM | OVCAR-3 > 100 µM | RPMI-8226 77.6 µM | SF-268 > 100 µM | SF-539 > 100 µM | SN12C > 100 µM | SNB-19 > 100 µM | SR > 100 µM | U-251 > 100 µM | UACC-62 > 100 µM | UO-31 > 100 µM

CCC1CC2CN3CCc4c([nH]c5c(-c6c(OC)ccc7c8c([nH]c67)[C@]6(C(=O)OC)CC7CC(CC)C6N(CC8)C7)c(O)ccc45)[C@](C(=O)OC)(C2)C13 (stereo not given in full)
inactive: A549 17.6 µM | DU-145 14.9 µM | HCC 2998 13.3 µM | K562 6.19 µM | LOX IMVI 14.8 µM | M14 24.9 µM | MOLT-4 2.64 µM | NCI-H23 16 µM | OVCAR-3 14.6 µM | SF-268 12.1 µM | SF-539 19.5 µM | SN12C 4.34 µM | SNB-19 14.3 µM | SNB-75 14.8 µM | SR 13.3 µM | U-251 12.9 µM | UACC-62 14.3 µM | UO-31 12.7 µM

C/C(=C\C(=O)O)C(=O)N(C)c1ccccc1I
inactive: A549 > 100 µM | DU-145 > 100 µM | HCC 2998 > 100 µM | K562 > 100 µM | LOX IMVI > 100 µM | M14 > 100 µM | MOLT-4 > 100 µM | NCI-H23 > 100 µM | OVCAR-3 > 100 µM | RPMI-8226 > 100 µM | SF-268 > 100 µM | SN12C > 100 µM | SNB-19 > 100 µM | SNB-75 > 100 µM | SR > 100 µM | U-251 > 100 µM | UACC-62 > 100 µM | UO-31 > 100 µM

COc1ccc(/C=C/c2cnnc3ccccc23)cc1OC
active: UO-31 0.0374 µM
inactive: A549 > 10 µM | DU-145 > 10 µM | HCC 2998 > 10 µM | HL-60 > 10 µM | K562 > 10 µM | LOX IMVI > 10 µM | M14 > 10 µM | MOLT-4 > 10 µM | NCI-H23 > 10 µM | OVCAR-3 > 10 µM | RPMI-8226 > 10 µM | SF-268 > 10 µM | SF-539 > 10 µM | SN12C > 10 µM | SNB-19 > 10 µM | SNB-75 5.46 µM | U-251 > 10 µM | UACC-62 > 10 µM

Cc1cc(C)c2c(SCc3ccc(Cl)cc3Cl)nc(N)nc2n1
inactive: A549 36.3 µM | DU-145 > 100 µM | HL-60 > 100 µM | K562 22.7 µM | LOX IMVI 28.9 µM | M14 82.6 µM | NCI-H23 > 100 µM | OVCAR-3 20.6 µM | RPMI-8226 60.7 µM | SF-268 > 100 µM | SN12C 21.2 µM | SNB-19 58.9 µM | SNB-75 58.6 µM | SR 33 µM | U-251 36.5 µM | UACC-62 > 100 µM | UO-31 23.5 µM

O=S(=O)(N/C(=N\O)Nc1ccc(Cl)cc1)c1ccc(S(=O)(=O)c2ccccc2)s1
inactive: A549 28.6 µM | DU-145 19.5 µM | HCC 2998 14.3 µM | HL-60 27.4 µM | K562 16.6 µM | LOX IMVI 15.5 µM | M14 18.5 µM | MOLT-4 12.9 µM | NCI-H23 17 µM | OVCAR-3 18.4 µM | RPMI-8226 13.6 µM | SF-268 23.1 µM | SF-539 24.5 µM | SN12C 17.4 µM | SNB-19 33.7 µM | U-251 20.8 µM | UACC-62 14.9 µM | UO-31 19.4 µM

CN1C(=O)C(c2c[nH]c3ccccc23)N(C)C(=O)C1c1c[nH]c2ccccc12 (stereo not given)
inactive: A549 > 100 µM | DU-145 > 100 µM | HCC 2998 > 100 µM | HL-60 > 100 µM | K562 > 100 µM | LOX IMVI > 100 µM | M14 > 100 µM | MOLT-4 > 100 µM | NCI-H23 > 100 µM | OVCAR-3 > 100 µM | SF-268 86.3 µM | SF-539 86.5 µM | SN12C > 100 µM | SNB-19 > 10 µM | SNB-75 33.8 µM | U-251 > 100 µM | UACC-62 > 100 µM | UO-31 > 100 µM

CC(=O)OCC1OC(OCC2OC(N3C(=S)N[C@H]([C@@H](O)[C@H](O)[C@H](O)CO)[C@H]3O)C(OC(C)=O)C(OC(C)=O)C2OC(C)=O)C(OC(C)=O)C(OC(C)=O)C1OC(C)=O (stereo not given in full)
inactive: A549 > 100 µM | DU-145 > 100 µM | HCC 2998 > 100 µM | K562 28.6 µM | M14 > 100 µM | MOLT-4 > 100 µM | NCI-H23 > 100 µM | OVCAR-3 > 100 µM | RPMI-8226 79.8 µM | SF-268 > 100 µM | SF-539 > 100 µM | SN12C > 100 µM | SNB-19 > 100 µM | SR > 100 µM | U-251 > 100 µM | UACC-62 > 100 µM | UO-31 > 100 µM
